Assay results as given in patent US20090068143A1, “ORALLY EFFECTIVE C[…]” (priority 2005, published 2009).
In brackets after ≈: the same amount, converted by molar mass. Read-outs that look alike come from different tables or passages of the source.

Tests used:
iNOS = iNOS protein expression in activated macrophages (western blot); type: cell-based, mouse; details: 1, 5 and 10 μM, 24 hrs after LPS stimulation
Procedure: RAW 264.7 macrophages, a mouse cell line (ATCC # TIB 71), were grown in Dulbecco's modified Eagle's medium (DMEM) with 4 mM L-glutamine adjusted to contain 1.5 g/L sodium bicarbonate, 4.5 g/L glucose, and 10% heat inactivated fetal bovine serum. Cells were grown in tissue culture flasks and seeded at appropriate density into 6 wells tissue culture plates. Four million Raw cells in half a milliliter were stimulated with 1 μg/ml Lipopolysaccharide E. coli 055:B5 (DIFCO Laboratories). The mouse macrophages were pre-treated for one hour with controls or 10 μM of test compounds, and later on activated with LPS. RNA samples were extracted from the cells 3 hrs after activation and iNOS gene expression levels were analyzed by real-time RT-PCR as previously described. For western blot analysis, compounds were tested at 1, 5 and 10 μM and cells were harvested 24 hrs after LPS stimulation. Supernatant were collected and NO secretion was analyzed using ELISA. […]
To assess correlation between gene expression and protein expression, protein extracts were prepared from the various treated activated macrophages. […] Primary antibodies against cyclophilin A were used as control (Upstate, Cat# 07-313), and the amount of iNOS was assessed using NOS2 (C11) Santa Cruz antibodies (Cat# SC-7271) were hybridized for 2 hours at room temperature. […]

ICR male mice = experiment: Tetrad Assay (safety)
inflammatory pain = experiment: Inflammatory pain and paw edema, λ carrageenan; type: in vivo, Sprague Dawley rats; details: for ΔLT between hind paws, thermal stimulus: 3 hours; for reduction of delta force between paws, tactile stimulus: vehicle 31 g
Procedure: Male Sprague Dawley rats (average body weight 200 g, Harlan, Israel) were transiently sedated by placement on dry ice for the duration of the injections. Rats were injected subcutaneously, in the subplantar region of one (right) paw with 0.1 ml of 2% w/v λ Carrageenan in sterile saline. […] Test compounds were administered p.o. by oral gavage immediately after the carrageenan injection as pretreatment. Vehicle (PB) treated animals were used as controls. Before induction of inflammatory pain and three hours after injection, the animals reactions to pain stimuli were tested in two systems. The first stimulus was thermal and assessed by the Plantar Test according to Hargreaves, using Ugo Basile Model 7370. The scale was set to an intensity of 50 arbitrary units. The latency time till the animal lift a paw as a reaction to the thermal stimulus was recorded for both the inflamed and non-inflamed hind paws. The second stimulus was mechanical (tactile) and assessed using a Dynamic Plantar Sesthesiomether (Ugo Basile Model 73400-002). […] Finally, the impact on paw edema was assessed. Paw thickness is measured using a dial thickness gauge (Spring-dial, constant low pressure gauge, Mitutoyo, TG/L-1, 0.00 mm) and paw volume is measured using a plethysmometer (model #7150, Ugo Basile, Italy). At the end of the study, animals were euthanized with an i.p. injection of 100 mg/kg pentobarbitone.
The results are measured as the differences between the two hind paws at time 0 and 3 hours both as ALT, for the latency time in the thermal part of the study, and as ΔForce, for the mechanical part of the study. The paw volume is expressed as percent from vehicle treated animals. Results are expressed as mean±SEM for each treatment group and the differences among those groups are analyzed by analysis of variance (ANOVA) followed by post-hoc Tukey's test. A value of p<0.05 was considered to be statistically significant and is indicated on the figure by an asterisk over the relevant treatment group.

[1] = Actual solubility in aqueous buffers / cosolvent (HPLC, spectrophotometer); type: physicochemical; details: for solubility: thermodynamic from solid
Procedure: The actual solubility of certain compounds of the invention was assessed in aqueous buffers and final concentration of compounds was determined using HPLC and spectrophotometer methodologies. […] Therefore, compounds that were designed following the same rational yielded unexpectedly divergent outcome, for instance in connection with solubility in aqueous solutions.
It should be noted that following lyophilization compound 18F could be dissolved in 80 mM phosphate buffer at pH 6.9 even more efficiently at concentrations up to 60 mg/ml, about two order of magnitudes higher than expected.
Approximately 11 g of compound 18F were lyophilized in one lyophilization cycle. A cosolvent mixture comprising 38.6% w/v of compound 18F was divided into several dishes to fit the lyophilization chamber. As a result of lyophilization, a dry product with improved physical properties such as flowability and less stickiness was obtained.

SMILES: CCCCCCC(C)(C)c1cc(O)c([C@H]2CC(=O)C3CC2C3(C)C)c(OC(=O)/C=C/C(=O)O)c1 (single isomer, unassigned; (-)) [Compound 18F, (−)-4-{4-[1,1-Dimethylheptyl]-2-fumarate-6-hydroxy-phenyl}-6,6-dimethyl-bicyclo[3.1.1]heptan-2-one]
- iNOS protein band (western blot) (iNOS): clear dose dependent disappearance of iNOS protein band
- body temperature (ICR male mice; 30, 60, 80 and 100 mg/kg p.o.): transient hypothermia
- time to regain normothermia (ICR male mice; 30 and 60 mg/kg p.o.): ≤ 24 h
- body temperature below baseline at the end of follow-up period (ICR male mice; 80 and 100 mg/kg p.o.): 2 °C
- safety at therapeutically effective doses (ICR male mice; doses of up to 60 mg/kg p.o.): found to be safe
- catalepsy and spontaneous or forced locomotor activity (ICR male mice; p.o., up to maximal dose tested of 100 mg/kg): no effect
- decrease in paw volume (inflammatory pain; 10 mg/kg p.o.): 6%
- percent reduction of delta force, tactile stimulus (inflammatory pain; 10 mg/kg p.o.): 23%
- reduction of ΔLT, thermal stimulus (inflammatory pain; 10 mg/kg p.o.): no reduction
- ΔLT between hind paws, thermal stimulus (inflammatory pain; 10 mg/kg p.o., vehicle about 7.5): 7.5 s
- decrease in paw volume (inflammatory pain; 20 mg/kg p.o.): 18%
- paw volume, percent of vehicle (inflammatory pain; 20 mg/kg p.o.): 82%
- reduction of ΔLT, thermal stimulus (inflammatory pain; 20 mg/kg p.o.): 69%
- ΔLT between hind paws, thermal stimulus (inflammatory pain; 20 mg/kg p.o.): 2.3 s
- reduction of delta force between paws, tactile stimulus (inflammatory pain; 20 mg/kg p.o.): 18 g
- reduction of ΔLT, thermal stimulus (inflammatory pain; 30 mg/kg p.o.): 88%
- ΔLT between hind paws, thermal stimulus (inflammatory pain; 30 mg/kg p.o.): 0.9 s
- decrease in paw volume (inflammatory pain; 30 mg/kg p.o., significant): 52%
- reduction of delta force between paws, tactile stimulus (inflammatory pain; 30 mg/kg p.o.): 19 g
- percent reduction of delta force, tactile stimulus (inflammatory pain; 20 and 30 mg/kg p.o.): about 60%
- reduction in Δforce, mechanical stimulus (inflammatory pain; single dose of 20 mg/kg p.o.): 58%
- solubility ([1]; 80 mM phosphate buffer, aqueous buffer, 80 mM phosphate buffer, read-out: solubility of non-lyophilized material): ~10 mg/mL (≈ 21.2 mM)
- solubility ([1]; 80 mM phosphate buffer, pH 6.9, aqueous buffer, lyophilized, 80 mM phosphate buffer, pH 6.9, read-out: solubility following lyophilization): ≤ 60 mg/mL
- solubility ([1]; 80 mM phosphate buffer, pH 7.8, aqueous buffer, 80 mM phosphate buffer, pH 7.8, read-out: actual solubility): ≤ 12 mg/mL
- actual solubility higher than expected ([1]; 80 mM phosphate buffer, pH 7.8 vs calculated): about 20 fold
- dissolution in organic cosolvent solution ([1]; tert.butanol and water 62.5:32.5 (v/v)): up to 80 mg/ml
